Drawing on US6124328A, “Methods and compositions for stimulating neurite growth” (Vertex Pharmaceuticals Incorporated, priority 1997, dated 2000), this text covers Ki for 52 compounds.

Chain of FKBP12 (P62942 whole entry): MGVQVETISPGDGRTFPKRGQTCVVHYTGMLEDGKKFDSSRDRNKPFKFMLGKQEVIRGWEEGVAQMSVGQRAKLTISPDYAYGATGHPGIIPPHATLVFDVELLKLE

The first assay addresses FKBP12 (Homo sapiens, UniProt P62942). Kind of assay: FKBP12 Binding Assay: inhibition of FKBP rotomase activity (cis-N-succinyl-Ala-Ala-Pro-Phe-p-nitroanilide / chymotrypsin), apparent Ki. It counts as biochemical. The note with it: Table 1a, formula Ia, compound 0.1 nM-10 μM. An excerpt:
Preferably, the assay measures inhibition of FKBP12 rotomase activity. Such an assay has also been described by M. W. Harding et al., supra and by J. J. Siekierka et al., supra. In this assay the isomerization of an artificial substrate--N-succinyl-Ala-Ala-Pro-Phe-p-nitroanilide--is followed spectrophotometrically. The assay includes the cis form of the substrate, FKBP12, the inhibitor and chymotrypsin. Chymotrypsin is able to cleave p-nitroanilide from the trans form of the substrate, but not the cis form. Release of p-nitroanilide is measured.
In this assay various quantities of FKBP12 binding compound (0.1 nM-10 μM) were added to cis-N-succinyl-Ala-Ala-Pro-Phe-p-nitroanilide in the presence of FKBP12 and chymotrypsin. FKBP12 converts the cis form of the substrate to the trans form. This allows chymotrypsin to cleave p-nitroanilide from the substrate. Release of p-nitroanilide was measured spectrophotometrically.
For the compound `COc1cc(C(=O)C(=O)N2CCCC[C@H]2C(=O)OCCCC(C)C2CCCCC2)cc(OC)c1OC` (stereo partly shown), the Ki was 0.09 µM.

With `O=C(Cc1ccccc1[N+](=O)[O-])C(=O)N1CCCC[C@H]1C(=O)OCc1ccccc1` [Ia B=Benzyl, D=2-Nitrobenzyl, n=2], the Ki worked out at 26 µM.

The same assay, now with this note: Table 1c, formula Ic, compound 0.1 nM-10 μM.
As for `CCOC(=O)CN(Cc1ccccc1)C(=O)C(=O)OC`, the Ki was greater than 1200 µM.

Still in this assay, the particulars now being: Table 2, formula II', compound 0.1 nM-10 μM.
As to `COc1cc(C(=O)C(=O)N2CCCC[C@H]2C(=O)OC(c2ccccc2)c2cccc(Oc3ccccc3)c2)cc(OC)c1OC` (stereo partly shown) [compound 5], the Ki amounted to 4 µM.

On to `COc1ccc(CCC(CCCc2ccccc2)OC(=O)[C@@H]2CCCCN2C(=O)C(=O)c2cc(OC)c(OC)c(OC)c2)cc1` (stereo partly shown) [compound 13], for which the Ki was determined as 0.0035 µM.

Regarding `COc1cc(C(=O)C(=O)N2CCCC[C@H]2C(=O)OC(CCCc2ccccc2)CCCn2cnc3ccccc32)cc(OC)c1OC` (stereo partly shown) [compound 15], the Ki was 0.005 µM.

As for `COc1cc(C(=O)C(=O)N2CCCC[C@H]2C(=O)OC(CCCc2ccccc2)CCCc2ccccn2)cc(OC)c1OC` (stereo partly shown) [compound 20], the Ki amounted to 0.0065 µM.

Regarding `COc1cc(C(=O)C(=O)N2CCCC[C@H]2C(=O)OC(CCCc2ccccc2)CCCc2ccc[n+]([O-])c2)cc(OC)c1OC` (stereo partly shown) [compound 22], the Ki worked out at 0.007 µM.

With `COc1cc(C(=O)C(=O)N2CCCC[C@H]2C(=O)OC(CCCc2ccccc2)CCCn2ccc3cccnc32)cc(OC)c1OC` (stereo partly shown) [compound 23], the Ki amounted to 0.009 µM.

For `COc1cc(C(=O)C(=O)N2CCCC[C@H]2C(=O)OC(CCCc2ccccc2)CCCn2cnc3cncnc32)cc(OC)c1OC` (stereo partly shown) [compound 25], the Ki amounted to 0.0022 µM.

On to `COc1cc(C(=O)C(=O)N2CCCC[C@H]2C(=O)OC(CCCc2ccccc2)CCC(C)c2ccccc2)cc(OC)c1OC` (stereo partly shown) [compound 32], for which the Ki was determined as 0.02 µM.

For `C=CCOc1ccccc1C(CCCc1ccccc1)OC(=O)[C@@H]1CCCCN1C(=O)C(=O)c1cc(OC)c(OC)c(OC)c1` (stereo partly shown) [compound 34], the Ki worked out at 0.15 µM.

In the case of `COc1cc(C(=O)C(=O)N2CCCC[C@H]2C(=O)OC(CCCc2ccccc2)c2cccc(CO)c2)cc(OC)c1OC` (stereo partly shown) [compound 37], the Ki is 0.0068 µM.

With `COc1cc(C(=O)C(=O)N2CCCC[C@H]2C(=O)OC(CCCc2ccccc2)CCCc2ccc(C(=O)N(C)C)cc2)cc(OC)c1OC` (stereo partly shown) [compound 43], the Ki came out at 0.005 µM.

In the case of `COc1cc(C(=O)C(=O)N2CCCC[C@H]2C(=O)OC(CCCc2ccccc2)CCCc2ccc(C(=O)N3CCOCC3)cc2)cc(OC)c1OC` (stereo partly shown) [compound 44], the Ki worked out at 0.006 µM.

For the compound `C=CCOCCCCC(CCCc1ccccc1)OC(=O)[C@@H]1CCCCN1C(=O)C(=O)c1cc(OC)c(OC)c(OC)c1` (stereo partly shown) [compound 45], the Ki was found to be 0.007 µM.

As for `C=CCOCC#CC(CCCc1ccccc1)OC(=O)[C@@H]1CCCCN1C(=O)C(=O)c1cc(OC)c(OC)c(OC)c1` (stereo partly shown) [compound 46], the Ki is 0.005 µM.

Take `COc1cc(C(=O)C(=O)N2CCCC[C@H]2C(=O)OC(CCCc2ccccc2)CCCc2ccc(C(=O)N3CCCCC3)cc2)cc(OC)c1OC` (stereo partly shown) [compound 47]: the Ki came to 0.007 µM.

With `COc1cc(C(=O)C(=O)N2CCCC[C@H]2C(=O)OC(C)c2cc(OCc3ccccc3)cc(OCc3ccccc3)c2)cc(OC)c1OC` (stereo partly shown) [compound 49], the Ki came out at 3.4 µM.

Consider `C=CCOCCC(CCCc1ccccc1)OC(=O)[C@@H]1CCCCN1C(=O)C(=O)c1cc(OC)c(OC)c(OC)c1` (stereo partly shown) [compound 50], for which the Ki was found to be 0.011 µM.

On to `C=CCOC/C=C/C(CCCc1ccccc1)OC(=O)[C@@H]1CCCCN1C(=O)C(=O)c1cc(OC)c(OC)c(OC)c1` (stereo partly shown) [compound 51], for which the Ki turned out to be 0.0028 µM.

Consider `COc1cc(C(=O)C(=O)N2CCCC[C@H]2C(=O)OC(CCCc2ccccc2)CCCc2cccc(C(=O)N3CCOCC3)c2)cc(OC)c1OC` (stereo partly shown) [compound 52], for which the Ki was 0.0015 µM.

As to `COc1cc(C(=O)C(=O)N2CCCC[C@H]2C(=O)OC(CCCc2ccccc2)CCCc2ccc(C(=O)NCc3ccccc3)cc2)cc(OC)c1OC` (stereo partly shown) [compound 54], the Ki worked out at 0.0016 µM.

`COc1cc(C(=O)C(=O)N2CCCC[C@H]2C(=O)OC(CCCc2ccccc2)CCCc2ccc(C(=O)N3CCSCC3)cc2)cc(OC)c1OC` (stereo partly shown) [compound 55]: the Ki was found to be 0.0024 µM.

As for `COc1cc(C(=O)C(=O)N2CCCC[C@H]2C(=O)OC(CCCc2ccccc2)c2cccc(C(=O)N3CCOCC3)c2)cc(OC)c1OC` (stereo partly shown) [compound 56], the Ki stood at 0.0061 µM.

As for `COc1cc(C(=O)C(=O)N2CCCC[C@H]2C(=O)OC(CCCc2ccccc2)CCCc2ccc(C(=O)N3CCN(C)CC3)cc2)cc(OC)c1OC` (stereo partly shown) [compound 57], the Ki is 0.0056 µM.

Regarding `COc1cc(C(=O)C(=O)N2CCCC[C@H]2C(=O)OC(CCCc2ccccc2)CCCc2ccc(C(=O)N3CCN(Cc4ccccc4)CC3)cc2)cc(OC)c1OC` (stereo partly shown) [compound 58], the Ki was determined as 0.03 µM.

On to `COc1cc(C(=O)C(=O)N2CCCC[C@H]2C(=O)OC(CCCc2ccccc2)CCCc2cccc(C(=O)NCc3ccccc3)c2)cc(OC)c1OC` (stereo partly shown) [compound 59], for which the Ki was determined as 0.04 µM.

For the compound `COc1cc(C(=O)C(=O)N2CCCC[C@H]2C(=O)OC(CCCc2ccccc2)CCCc2ccc(C(=O)Nc3ccccn3)cc2)cc(OC)c1OC` (stereo partly shown) [compound 60], the Ki was determined as 0.002 µM.

Turning to `COc1cc(C(=O)C(=O)N2CCCC[C@H]2C(=O)OC(CCCc2cccnc2)c2cccnc2)cc(OC)c1OC` (stereo partly shown) [compound 61], the Ki turned out to be 0.01 µM.

Turning to `C=CCC(OC(=O)[C@@H]1CCCCN1C(=O)C(=O)c1cc(OC)c(OC)c(OC)c1)c1ccc(OCc2ccncc2)c(OCc2ccncc2)c1` (stereo partly shown) [compound 62], the Ki turned out to be 0.062 µM.

As to `COc1cc(C(=O)C(=O)N2CCCC[C@H]2C(=O)OC(c2cccnc2)c2cccc(OCc3ccncc3)c2)cc(OC)c1OC` (stereo partly shown) [compound 63], the Ki is 0.013 µM.

As to `COc1cc(C(=O)C(=O)N2CCCC[C@H]2C(=O)OC(CCCc2ccccc2)c2cccc(OCc3ccncc3)c2)cc(OC)c1OC` (stereo partly shown) [compound 64], the Ki was found to be 0.0014 µM.

For `COc1cc(C(=O)C(=O)N2CCCC[C@H]2C(=O)OC(CCCc2ccccc2)c2ccc(OCc3ccncc3)c(OCc3ccncc3)c2)cc(OC)c1OC` (stereo partly shown) [compound 65], the Ki was 0.0041 µM.

Consider `COc1cc(C(=O)C(=O)N2CCCC[C@H]2C(=O)OC(C)c2ccc(OCc3ccncc3)c(OCc3ccncc3)c2)cc(OC)c1OC` (stereo partly shown) [compound 66], for which the Ki came out at 0.035 µM.

Consider `COc1cc(C(=O)C(=O)N2CCCC[C@H]2C(=O)OC(CCCc2ccccc2)c2ccc(OCc3ccncc3)c(OCc3ccncc3)c2OCc2ccncc2)cc(OC)c1OC` (stereo partly shown) [compound 67], for which the Ki was 0.046 µM.

As for `COc1cc(C(=O)C(=O)N2CCCC[C@H]2C(=O)OC(CCCc2ccccc2)c2ccc(OCc3ccncc3)c(C(=O)N3CCOCC3)c2)cc(OC)c1OC` (stereo partly shown) [compound 68], the Ki was determined as 0.002 µM.

Turning to `COc1cc(C(=O)C(=O)N2CCCC[C@H]2C(=O)OC(C)c2cc(OCc3ccncc3)c(OCc3ccncc3)c(OCc3ccncc3)c2)cc(OC)c1OC` (stereo partly shown) [compound 69], the Ki stood at 0.036 µM.

As for `COc1cc(C(=O)C(=O)N2CCCC[C@H]2C(=O)OC(CCCc2ccccc2)c2cc(OCc3ccncc3)c(OCc3ccncc3)c(OCc3ccncc3)c2)cc(OC)c1OC` (stereo partly shown) [compound 70], the Ki was found to be 0.005 µM.

With `COc1cc(C(=O)C(=O)N2CCCC[C@H]2C(=O)OC(C)c2cc(OCc3ccncc3)cc(OCc3ccncc3)c2)cc(OC)c1OC` (stereo partly shown) [compound 71], the Ki was 0.014 µM.

As for `COc1cc(C(=O)C(=O)N2CCCC[C@H]2C(=O)OC(C)c2cc(OCc3ccncc3)cc(OCc3ccncc3)c2)cc(OC)c1OC` (stereo partly shown) [compound 72], the Ki stood at 0.012 µM.

Regarding `COc1cc(C(=O)C(=O)N2CCCC[C@H]2C(=O)OC(C)c2cc(OCc3ccncc3)c(C)c(OCc3ccncc3)c2)cc(OC)c1OC` (stereo partly shown) [compound 73], the Ki came to 0.036 µM.

Consider `CCC(OC(=O)[C@@H]1CCCCN1C(=O)C(=O)c1cc(OC)c(OC)c(OC)c1)c1cc(OCc2ccncc2)c(OCc2ccncc2)c(OCc2ccncc2)c1` (stereo partly shown) [compound 74], for which the Ki stood at 0.018 µM.

Take `CCC(OC(=O)[C@@H]1CCCCN1C(=O)C(=O)c1cc(OC)c(OC)c(OC)c1)c1cc(OCc2ccncc2)c(OCc2ccncc2)c(OCc2ccncc2)c1` (stereo partly shown) [compound 75]: the Ki stood at 0.012 µM.

Regarding `C=CCC(OC(=O)[C@@H]1CCCCN1C(=O)C(=O)c1cc(OC)c(OC)c(OC)c1)c1cc(OCc2ccncc2)c(OCc2ccncc2)c(OCc2ccncc2)c1` (stereo partly shown) [compound 76], the Ki is 0.014 µM.

As for `C=CC(OC(=O)[C@@H]1CCCCN1C(=O)C(=O)c1cc(OC)c(OC)c(OC)c1)c1cc(OCc2ccncc2)c(OCc2ccncc2)c(OCc2ccncc2)c1` (stereo partly shown) [compound 78], the Ki worked out at 0.073 µM.

As to `C=CC(OC(=O)[C@@H]1CCCCN1C(=O)C(=O)c1cc(OC)c(OC)c(OC)c1)c1cc(OCc2ccncc2)c(OCc2ccncc2)c(OCc2ccncc2)c1` (stereo partly shown) [compound 79], the Ki is 0.0023 µM.

For the compound `CCCC(OC(=O)[C@@H]1CCCCN1C(=O)C(=O)c1cc(OC)c(OC)c(OC)c1)c1cc(OCc2ccncc2)c(OCc2ccncc2)c(OCc2ccncc2)c1` (stereo partly shown) [compound 80], the Ki came out at 0.017 µM.

As for `CCCC(OC(=O)[C@@H]1CCCCN1C(=O)C(=O)c1cc(OC)c(OC)c(OC)c1)c1cc(OCc2ccncc2)c(OCc2ccncc2)c(OCc2ccncc2)c1` (stereo partly shown) [compound 81], the Ki came out at 0.005 µM.

As for `COc1cc(C(=O)C(=O)N2CCCC[C@H]2C(=O)OC(C)c2cc(OCc3ccsc3)c(OCc3ccsc3)c(OCc3ccsc3)c2)cc(OC)c1OC` (stereo partly shown) [compound 82], the Ki was greater than 5 µM.

With `COc1cc(C(=O)C(=O)N2CCCC[C@H]2C(=O)OC(C)c2cc(OCc3ccsc3)c(OCc3ccsc3)c(OCc3ccsc3)c2)cc(OC)c1OC` (stereo partly shown) [compound 83], the Ki was greater than 1 µM.

In the case of `COc1cc(C(=O)C(=O)N2CCCC[C@H]2C(=O)OC(C)c2ccc(OCc3ccncc3)c(OCc3ccncc3)c2OC(C)C)cc(OC)c1OC` (stereo partly shown) [compound 84], the Ki amounted to 0.054 µM.
